This is an account of results in EP0411503B1, “Process for identifying and synthesizing binding sites of interacting proteins” (priority 1989, dated 1999).

For this assay, the target named is peptide HIV-1 gp120. As to the kind of experiment: Affinity HPLC of CD4 peptide on immobilized HIV-1 gp120 peptide. The format is binding. The source says: The existence of an interaction ability among complementary peptides was verified by affinity HPLC (G. Fassina and I. M. Chaiken, Advances in Chromatogr. 27:250, 1987).
The peptide HIV-1 gp120 was immobilized on a solid support (Eupergit^R C 30n, 800 µmoles/g load capability by controlled density) according to the conditions reported in literature (G. Fassina et al., J. Chromatogr. 376:87, 1986) and an HPLC glass column (80∗ 6.6 mm ID) was loaded with the peptide derivatized support to prepare an affinity column. The total amount of immobilized peptide in the column is 260 µg, as checked from the amino acid analysis of the support. Small amounts (1-10 µg) of CD4 peptide were eluted isochrathically on the column equilibrated by a flow rate of 1.0 ml/min with 0.1 M NH4Ac, pH 5.7.
The eluted solution was analysed by monitoring the optic absorbance.
The extension of the delay on column, which indicates the interaction between the peptides, was correlated to the dissociation constant Km/p of the binding according to the equation: 1/(V-Vo ) = Km/p /MT +[P]T /MT [formula] where V is the elution volume of the eluted peptide, Vo is void volume of the column, MT is the total immobilized peptide, [P]T is the eluted peptide, and Km/p is the dissociation constant of the binding. […]

Where no end group is shown, it is not given here.

Consider “GPSKLNDRADS [peptide CD4, NH2-GPSKLNDRADSCOOH]”, for which the Kd (immobilized HIV-1 gp120 peptide, 0.1 M NH4Ac, pH 5.7, extrapolation at concentration zero of peptide, read-out: dissociation constant) was 80 µM. Regarding NH2-APPISGOIRSS-COOH [HIV-1 gp120], the “binding in competitive binding assay” value (1 mM of HIV-1 gp120 added to the buffer) is on record as “completely inhibited”.
